In article PMC7376718, “Flavonoids isolated from the South African weed Chromolaena odorata (Asteraceae) have pharmacological activity against uropathogens” (BMC Complementary Medicine and Therapies, 2020):
In brackets after ≈: the same amount, converted by molar mass. Read-outs that look alike come from different tables or passages of the source.

How the values were obtained:
[1] = in vitro
Procedure: (§1) Different concentrations of the compounds ranging from 0.003 to 0.2 mg/mL were tested for cytotoxicity against three cell lines; Vero monkey kidney, C3A and Caco2. Vero cells were grown and maintained in MEM, supplemented with 0.1% gentamicin and 5% foetal calf serum, while Caco2 and C3A cells were grown and maintained in DMEM supplemented with 10% foetal calf serum, 1% non-essential amino acids and 1% penicillin-streptomycin. All cells were incubated in a 5% CO2 incubator at 37 °C. Doxorubicin chloride was used as positive control while 10% DMSO used in dissolving the test samples was used as the negative control. The 3-(4,5-dimethylthiazol)-2,5-diphenyl tetrazolium bromide (MTT) assay described by Mosmann with modification by McGaw et al. was used to determine the cytotoxicity of the test samples. The lethal concentration (LC50) value was calculated as the concentration of tested sample resulting in a 50% reduction of absorbance compared to untreated cells. Selectivity index (SI) values were calculated against the MIC using the formula: […]

[2] = in vitro; remark: listed apart in the source
Procedure: as §1

[3] = test system: C. neoformans and A. fumigatus; assay: Mean MIC over the fungal isolates; assay type: cell-based; conditions: all time points of Table 3
Source text: The cultures used were Escherichia coli (American Type Culture Collection, ATCC 25922) labelled as 1, E. coli isolates (B1989/17 and B1962/17) labelled as 2 and 3 from equine urine, collected from the Department of Veterinary Tropical Diseases, Faculty of Veterinary Science, University of Pretoria, South Africa, Klebsiella pneumoniae isolate from commercial chicken eggs, Enterococcus faecalis (ATCC 29212), Pseudomonas aeruginosa (ATCC 27853), Staphylococcus aureus (ATCC 29213), Candida albicans from a Gouldian finch, Aspergillus fumigatus from a chicken and Cryptococcus neoformans from a cheetah. These microbial strains were maintained on MHA or SDA for bacteria and fungi respectively, while the isolates were maintained on blood agar.
Ten mg/mL of each fraction and 1 mg/mL of isolated compounds were prepared in 10% DMSO and tested against S. aureus, E. coli, K. pneumoniae, E. faecalis, P. aeruginosa, C. albicans, C. neoformans and A. fumigatus. Cultures were prepared by inoculating each microbial strain from prepared agar plates into sterilized MHB for bacterial and SDB for fungi in sterile McCartney bottles respectively. The inoculums were placed in an orbital shaker incubator. Bacterial strains were incubated at 37 °C for 18 h. Each bacterial culture was diluted in fresh MHB and the absorbance was measured at a wavelength of 560 nm using a microplate reader (Epoch Biotek). The readings were compared to a McFarland standard No. 1 correlating to approximately 3 × 10^8 cfu/mL). For fungi strains, cultures were incubated at 30 °C for 24 h (C. albicans), 72 h (C. neoformans) and 120 h (A. fumigatus) respectively. The resultant cells and spores were washed with sterile normal saline and absorbance was measured at a wavelength of 560 nm and turbidity was adjusted to a McFarland standard 1.This was further diluted in a 1:10 ratio in SDB to a turbidity of 5 × 10^5 cfu/mL. These diluted cultures (bacterial and fungi) were used for the screening following the serial microdilution method of Eloff.

[4] = test system: S. aureus; set-up: method as in earlier work; conditions: ref [70] Teffo et al.; cited from earlier work
[5] = test system: Caco2 cells; assay: in vitro; conditions: Caco2
Procedure: as §1

[6] = test system: E. coli; set-up: method as in earlier work; conditions: ref [70] Teffo et al.; cited from earlier work

| Structure (SMILES) | CC50 [1] | CC50 [2] | MIC [3] | Mean MIC [3] | MIC / antibacterial activity [4] | Selectivity index (LC50/MIC) ([5]; A. fumigatus 48 h) | Selectivity index (LC50/MIC) ([5]; E. coli (1)) | Selectivity index (LC50/MIC) ([5]; E. coli (2)) | Selectivity index (LC50/MIC) ([5]; E. coli (3)) | Selectivity index (LC50/MIC) ([5]; K. pneumoniae) | Selectivity index (LC50/MIC) ([5]; S. aureus) | MIC / antibacterial activity [6] |
| --- | --- | --- | --- | --- | --- | --- | --- | --- | --- | --- | --- | --- |
| COc1ccc(C2CC(=O)c3c(OC)cc(OC)cc3O2)cc1 (racemic) [Compound 2, (±)-4′,5,7-trimethoxy flavanone] | > 200 µg/mL | 200 µg/mL (≈ 636 µM) | 70 ± 60 µg/mL (≈ 223 µM) | 70 µg/mL |  |  |  |  |  |  |  |  |
| COc1ccc(-c2oc3cc(OC)cc(O)c3c(=O)c2OC)cc1 [Compound 3, 5-hydroxy-3,7,4′-trimethoxyflavone] |  |  |  |  | no activity was recorded | 5.129 | 2.52 | 0.636 | 0.636 | 1.272 | 9.938 | no activity was recorded |
